From US8343916B2, “Use of heat-shock protein 27 for cardiovascular disease prevention and treatment” (Ottawa Heart Institute Research Corporation, priority 2007, dated 2013)
“Also recorded” adds a separate entry of the source.

Experiments:
Human macrophages (U937) = test: HSP27 secretion from human macrophages (Western blot of conditioned media); assay type: cell-based
Procedure: (§1) Cell lysates were obtained using a RIPA buffer [1% NP-40, 0.5% sodium deoxycholate, 0.1% SDS, Complete™ inhibitor in PBS]. Cells were washed twice with PBS, lysed in RIPA buffer, collected using a cell scraper, and placed on ice for 45 minutes. Cell debris was collected by centrifugation at 15,000×g for 20 minutes, and the supernatant containing the cellular protein was isolated. Protein was quantified using Bradford reagent (Sigma). For western blotting, 50 μg of whole cell protein was loaded onto a 10% SDS-PAGE gel and separated at 120V using gel electrophoresis. Protein was then transferred to a PVDF membrane (BioRad, Hercules, Calif.) for 2 hours at 60V. Membranes were then subjected to western blotting using the following antibodies: anti-HSP27 (Santa Cruz, 1:200); anti-SR-A (Chemicon, 1:2000); anti-IL-1β (R&D, 1:500); anti-IL-10 (Santa Cruz, 1:200).
Human macrophages (U937) were plated in replicates at a density of […] per well and treated with estradiol or acLDL. […] Macrophages were subjected to increasing concentrations of acLDL (1 to 100 μg/mL) for 24 hours.

aortic endothelial cells = test: HSP27 secretion from aortic endothelial cells (Western blot); assay type: cell-based, human; settings: DPN 1 nM, 24 h
Source text: (§2) HSP27 was detected in the extracellular space by Western blot.

[1] = test system: aortic smooth muscle cells; test: HSP27 secretion from aortic smooth muscle cells (Western blot); assay type: cell-based, human; settings: DPN 1 nM, 24 h
Source text: as §2

[2] = test system: macrophages (acLDL uptake via the scavenger receptor A); test: Fluorescent acLDL uptake by macrophages; assay type: cell-based, mouse
Procedure: Cells were treated with Dil-acLDL (5 μg/ml) for 4 hours at 37° C., in the presence of recombinant HSP27 (5 μg/ml) and/or fucoidan (10 μg/ml). Cells were harvested by gentle cell scraping in 100 μl of PBS. Each sample was analyzed for acLDL fluorescence on a BMG PolarStar plate reader (excitation: 510 nm, emission: 570 nm) and normalized to total cell number using the Vi-Cell cell counter (Beckman Coulter, Mississauga, ON).
Foam cell formation is a hallmark process in the development of atherosclerosis, and prevention of lipid uptake by macrophages may serve to reduce overall lesion development and inflammation. If HSP27 can bind the SR-A in vitro, and there is an atheroprotective effect of HSP27 in vivo, HSP27 may prevent the SR-A from taking up atherogenic lipids such as acLDL and becoming foam cells. In support of this, mouse macrophages were cultured in vitro in the presence of fluorescently labeled acLDL for […], and acLDL uptake was measured using a fluorometer and normalized to total cell number.
Extracellular HSP27 inhibits uptake of acLDL by macrophages via the scavenger receptor A. Fluorescently labeled acLDL (5 μg/ml) was given to macrophages in the presence (right columns) or absence (left columns) of recombinant HSP27 (5 μg/ml). […] Fluorescent uptake was measured and normalized to total cell number.

[3] = target: T1, scavenger receptor A (SR-A) (Mus musculus, UniProt P30204); test: Immunolabeling of recombinant HSP27 binding to macrophage surface and SR-A
T1 construct: detection of a ˜50 kDa band corresponding to SR-A in these cells; endogenous in cells; host or cells: J774 mouse macrophages (untransfected); mouse peritoneal macrophages
T1 sequence (P30204 1-458): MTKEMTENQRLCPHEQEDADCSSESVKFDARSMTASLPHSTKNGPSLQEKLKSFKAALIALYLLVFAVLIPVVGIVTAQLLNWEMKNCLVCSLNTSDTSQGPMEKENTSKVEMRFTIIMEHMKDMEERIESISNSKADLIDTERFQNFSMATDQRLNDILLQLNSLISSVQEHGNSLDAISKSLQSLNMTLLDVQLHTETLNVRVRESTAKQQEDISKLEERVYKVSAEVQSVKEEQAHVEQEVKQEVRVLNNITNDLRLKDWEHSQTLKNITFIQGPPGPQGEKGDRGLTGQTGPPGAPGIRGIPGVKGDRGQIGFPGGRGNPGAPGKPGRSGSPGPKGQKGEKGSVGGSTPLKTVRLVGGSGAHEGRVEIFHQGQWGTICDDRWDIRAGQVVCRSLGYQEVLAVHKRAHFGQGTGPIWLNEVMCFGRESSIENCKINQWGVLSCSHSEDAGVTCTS
Procedure: J774 cells treated with recombinant HSP27 (5 μg/ml) with or without fucoidan (10 μg/ml) were fixed with BD Cytofix (BD Biosciences, Mississauga, ON) and blocked with 2% bovine serum albumin (BSA) for 2 hours. Antibodies against human HSP27 (Chemicon, 1:200) and scavenger receptor A (Serotec, 1:200) were incubated overnight at 4° C. Visualization of substrates was done using secondary antibodies conjugated to fluoroscein (for HSP27) and Texas Red (for SR-A). Negative controls included incubation with control IgG and secondary antibody alone.
Cells were grown on cover slips, and transfected as described above. Cells were fixed with BD Cytofix as directed by the manufacturer and mounted with Dako Fluorescent mounting media (Dako Cytomation, Mississauga, ON). Coverslips were visualized with an Olympus FluoView FV1000 confocal microscope (Olympus America Inc, Center Valley, Pa.) at 100× magnification, using sequential scanning to reduce any potential non-specific excitation of the different fluorophores.
Cells were also treated with an SR-A specific competitive ligand (fucoidan, 10 ug/ml) before administration of HSP27 (bottom panel). Co-localization is seen as a yellow colour. […] Macrophages from SR-A null mice were harvested and incubated with recombinant HSP27 (5 μg/ml) for 2 hours at 4° C. Immunolabeling was performed as described above.

ApoE−/− mice = test: Short term (3 week) rHSP27 treatment of ApoE−/− mice on high fat diet; assay type: in vivo, mouse
Procedure: ApoE^−/− mice were maintained on a high fat diet and randomized to rHSP27 (100 ug) vs. phosphate buffered saline (PBS) twice a day for 3 weeks.
FIG. 22A depicts the experimental design: ApoE^−/− mice were maintained on a high fat diet and randomized to rHSP27 (100 ug) vs. phosphate buffered saline (PBS) twice a day for 3 weeks. The mice were then euthanized and blood samples were collected. After perfusing with phosphate-buffered saline (PBS) followed by 4% paraformaldehyde (PFA) in PBS via the left ventricle, the heart and aorta were removed and immersed in 4% PFA/PBS at 4° C. overnight. Serum lipoprotein separation was performed by fast-performance liquid chromatography (FPLC) analysis using a Superose 6 column (Pharmacia Biotech Inc., Piscataway, N.J., USA) on an HPLC system model 805 MANOMETRIC MODULE (GILSON). An enzymatic assay kit (Wako Pure Chemical Industries, Ltd, Osaka, Japan) was employed to determine cholesterol level. The content of the aortic atherosclerotic lesions were assessed using quantitative histochemical and immunohistochemical methods. Dark red oil red O staining identifying lipidoid deposits, while Haematoxylin and eosin (H&E) stained denote tissue histopathology.
Hematoxylin and eosin (H&E) stained tissue sections were also labeled for nuclear staining (blue fluorescent Hoechst 33258), apoptosis (green fluorescent TUNEL labeling) and macrophages accumulation (green fluorescent Mac-2).

[4] = rHSP27 pharmacokinetic experiments (subcutaneous injection); assay type: in vivo, mouse; settings: 100 μg subcutaneously, male and female ApoE−/− mice; similar to female ApoE−/− HSP27o/e mice
Procedure: These were performed by injecting 100 μg of purified rHSP27 or control BSA (in PBS) subcutaneously into male and female ApoE^−/− mice and then checked serum rHSP27 levels at various times post-injection (n=3-6).

Insulin = test: rHSP27 chaperone activity assay (DTT-induced aggregation of insulin); assay type: biochemical; settings: Insulin 40 μM; Insulin:rHSP27 10:1 and 100:1; 43° C.; absorbance at 320 nm
Procedure: The rHSP27 was produced in E. coli. The rHSP27 so produced is >90% endotoxin free (endotoxin concentration assessed using Limulus Amebocyte Lysate gel-blot Assay: 2-3 EU/mg protein). Based on in vitro chaperone assay experiments, the protein is “functional”. […] The DTT-induced aggregation of insulin was performed in the absence and presence of rHSP27 in PBS solution, pH 7.4, to measure the chaperone activity of rHSP27. Insulin (40 μM) with different concentration of rHSP27 (Insulin: rHSP27=10:1 and 100:1 and no rHSP27) in PBS were incubated for 10 min at 43° C., respectively. Aggregation was monitored by measure the absorbance at 320 nm in Bioteck Synergy Mx spectrophotometer for 30 min at 43° C. after add DTT to a final concentration of 20 mM.

[5] = test system: macrophages (IL-1β, IL-10 release); test: Cytokine release from acLDL-treated macrophages (western blot of conditioned media); assay type: cell-based, mouse; settings: recombinant HSP27 5 μg/ml, acLDL 5 ug/ml, 30 minutes and 4 hours
Procedure: as §1
Fluorescently labeled acLDL (5 ug/ml) was given to macrophages in the presence or absence of recombinant HSP27 (5 μg/ml). Conditioned media was collected after 30 minutes and 4 hours and subjected to western blotting for IL-1β (FIG. 7A) and IL-10 (FIG. 7B). Addition of HSP27 caused a decrease in the acLDL-induced secretion of IL-1β into the extracellular space.

With `N#CC(Cc1ccc(O)cc1)c1ccc(O)cc1` (stereo not shown) [DPN] the “HSP27 secretion upon stimulation of ERβ” value (Human macrophages (U937); DPN 1 nM, 4 h or 24 h) was “enhanced”, the “HSP27 secretion from endothelial cells” value (aortic endothelial cells) was “increase in HSP27 secretion” and the “HSP27 secretion from smooth muscle cells” value [1] was “not smooth muscle cells”.

In the case of `C[C@]12CC[C@@H]3c4ccc(O)cc4CC[C@H]3[C@@H]1CC[C@@H]2O` [E2, 17β-estradiol], the “intracellular HSP27 protein levels” value (Human macrophages (U937)) was “increased slightly”, the “colocalization of HSP27 with lysosome marker LAMP1” value (Human macrophages (U937); 100 nmol/L E2 overnight) was “displayed colocalization of HSP27 (red) and LAMP1” and the “HSP27 release into the media” value (Human macrophages (U937); E2 for 24 hours, compared to controls) was “dose-dependent increase”. The “time of maximum HSP27 secretion” value (Human macrophages (U937); estrogen-induced release over time) was 24 h.

For fucoidan [reference compound], the “inhibition of acLDL uptake by macrophages” value ([2]; fucoidan 10 ug/ml before acLDL or HSP27) was “capable of inhibiting this process” and the “HSP27 binding to SR-A in the presence of competitor” value ([3]; fucoidan 10 ug/ml before HSP27) was “reduced”.

In the case of “rHSP27: recombinant human heat shock protein 27 produced in E. coli, purified, injected subcutaneously”, the body weight (ApoE−/− mice; 100 ug BID, 3 weeks) was “did not change”, the “cholesterol levels contained by VLDL and IDL/LDL (FPLC)” value (ApoE−/− mice; 100 ug BID, 3 weeks) was “reduces cholesterol levels contained by VLDL and IDL/LDL” and the “number of WBC (peripheral blood smears)” value (ApoE−/− mice; 100 ug BID, 3 weeks) was “did not change”. For the same compound, the “reduction in abundance of aortic sinus lesion macrophages” value (ApoE−/− mice; 100 ug BID, 3 weeks, Mac-2) was “approximately 45%”, the “reduction in abundance of apoptotic macrophages in aortic sinus lesion” value (ApoE−/− mice; 100 ug BID, 3 weeks, TUNEL) was roughly 80% and the “reduction in aortic sinus lesion area” value (ApoE−/− mice; 100 ug BID, 3 weeks, p=0.002) was 26%. The “reduction in aortic wall (en face) lesion area” value (ApoE−/− mice; 100 ug BID, 3 weeks, p=0.01) was 27%, the liver cholesterol content (ApoE−/− mice; 100 ug BID, after the 3rd week) was “without a rise” and the “serum total cholesterol levels lower by” value (ApoE−/− mice; 100 ug BID, after the 3rd week, vs PBS) was 41%. For the same compound, the “adverse events when injected in mice” value (ApoE−/− mice; mouse, in vivo) was “did not cause adverse events”, the “atherogenesis in ApoE−/− mice” value (ApoE−/− mice; mouse, in vivo) was “efficacious in reducing atherogenesis” and the “serum rHSP27 level with twice daily injection schedule” value [4] was “effective to maintain a serum level of rHSP27”. The “chaperone activity (in vitro aggregation and refolding assays)” value (Insulin) was “functional”.

For “recombinant HSP27: Recombinant HSP27 was purchased from Stressgen; heat shock protein 27 added extracellularly to macrophages”, the “reduction in acLDL uptake by macrophages” value ([2]; recombinant HSP27 5 μg/ml, fluorescently labeled acLDL 5 μg/ml, normalized to total cell number) was 41%, the “HSP27 binding to the cell surface of macrophages from SR-A null mice” value ([3]; 5 μg/ml, 2 hours at 4° C.) was “completely abolished” and the “binding to surface of macrophages and co-localization with SR-A” value ([3]; 5 μg/ml, 2 hours at 4° C., confocal microscopy) was “capable of binding the surface of macrophages, and co-localizes with SR-A”. The “acLDL-induced secretion of IL-1β” value [5] was “decrease”, the “release of IL-10” value [5] was “increased” and the “acLDL-induced secretion of IL-1β” value ([5]; listed as HSP27) was “considerable decrease; also recorded: reduced”.
